In patent US11000033B2, “Ketone or oxime compound, and herbicide” (NISSAN CHEMICAL CORPORATION, priority 2014, dated 2021):

Columns and labels:
Assay type in all cases: in vivo
Abutilon theophrasti = test: Test Example 5: herbicidal effect by foliage application, plastic box (symbol M); settings: 320 g/ha, 3 weeks after application
Summary of the method: (§1)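 Greenhouse foliar test: seedlings at 14 days, grown 25° C. to 30° C. in sterilized diluvial soil; compound applied as an aqueous dilution of an emulsion; response read 3 weeks after spraying.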

transplanted rice plant = test: Test Example 1: effect on crop, application before weed generation in submerged conditions (symbol a); settings: application herbicide amount 320 g/ha
Summary of the method: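 Rice at 2.5 leaf stage transplanted into submerged soil (4 cm depth) sown with three weed species; herbicide applied before weed emergence.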

beet = test: Test Example 5: effect on crop by foliage application, plastic box (symbol f); settings: 320 g/ha, 3 weeks after application
Summary of the method: (§2)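 Plants were raised from seed in a greenhouse (25° C. to 30° C.) after sowing in a plastic box of sterilized diluvial soil.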

[1] = test system: Echinochloa oryzacola Vasing.; test: Test Example 2: herbicidal activity, application during weed generation in submerged conditions (symbol A); settings: Table 23; application herbicide amount 320 g/ha; grade 0-5 by criteria of Test Example 1
Summary of the method: (§3)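 Treatment timing was the one- to two-leaf stage, with diluted emulsifiable compound dropped onto the paddy water (depth 4 cm) over alluvial soil. All three species grew from a mixed sowing in a 25° C. to 30° C. greenhouse. Injury was judged by eye 3 weeks on.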

rice plant = test: Test Example 5: effect on crop by foliage application, plastic box (symbol b); settings: 320 g/ha, 3 weeks after application
Summary of the method: as §2

Veronica persica = test: Test Example 5: herbicidal effect by foliage application, plastic box (symbol R); settings: 320 g/ha, 3 weeks after application
Summary of the method: as §1

Scirpus juncoides [2] = test: Test Example 2: herbicidal activity, application during weed generation in submerged conditions (symbol B); settings: Table 23; application herbicide amount 320 g/ha; grade 0-5 by criteria of Test Example 1
Summary of the method: as §3

Galium spurium = test: Test Example 5: herbicidal effect by foliage application, plastic box (symbol Q); settings: 320 g/ha, 3 weeks after application
Summary of the method: as §1

[3] = test system: Echinochloa crus-galli var. crus-galli; test: Test Example 5: herbicidal effect by foliage application, plastic box (symbol H); settings: 320 g/ha, 3 weeks after application
Summary of the method: as §1

Monochoria vaginalis [4] = test: Test Example 1: herbicidal activity, application before weed generation in submerged conditions (symbol C); settings: application herbicide amount 320 g/ha
Summary of the method: (§4)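 Steps: alluvial soil flooded to 4 cm; weed seeds sown together; rice seedlings (2.5 leaf) transplanted; diluted emulsion applied to water surface the same day as sowing; plants grown at 25–30 °C in greenhouse; herbicidal effect rated on a 0–5 scale at 3 weeks.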

rapeseed = test: Test Example 5: effect on crop by foliage application, plastic box (symbol g); settings: 320 g/ha, 3 weeks after application
Summary of the method: as §2

Chenopodium album = test: Test Example 5: herbicidal effect by foliage application, plastic box (symbol O); settings: 320 g/ha, 3 weeks after application
Summary of the method: as §1

[5] = test system: directly sowed rice plant; test: Test Example 3: effect on crop by foliage application, Wagner pot (symbol b); settings: application herbicide amount 320 g/ha
Summary of the method: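 Alluvial soil in a 1/10000-are Wagner pot was flooded to a water depth of 0.1–0.5 cm. Echinochloa crus-galli var. crus-galli, Leptochloa chinensis, Cyperus difformis and rice were sown into it and grown in a greenhouse at 25–30 °C.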

Apera spica-venti = test: Test Example 5: herbicidal effect by foliage application, plastic box (symbol L); settings: 320 g/ha, 3 weeks after application
Summary of the method: as §1

Leptochloa chinensis = test: Test Example 3: herbicidal effect by foliage application, Wagner pot (symbol D); settings: application herbicide amount 320 g/ha
Summary of the method: (§5)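 The compound, formulated as an emulsion and diluted with water to a predetermined rate, is applied uniformly to leaves of two-week-old seedlings growing in submerged alluvial soil at 25–30 °C. Rice is included. Each plant is assessed 3 weeks later using defined criteria.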

[6] = test system: Echinochloa crus-galli var. crus-galli; test: Test Example 3: herbicidal effect by foliage application, Wagner pot (symbol H); settings: application herbicide amount 320 g/ha
Summary of the method: as §5

Stellaria media = test: Test Example 5: herbicidal effect by foliage application, plastic box (symbol P); settings: 320 g/ha, 3 weeks after application
Summary of the method: as §1

Avena fatua = test: Test Example 5: herbicidal effect by foliage application, plastic box (symbol I); settings: 320 g/ha, 3 weeks after application
Summary of the method: as §1

Setaria viridis = test: Test Example 5: herbicidal effect by foliage application, plastic box (symbol G); settings: 320 g/ha, 3 weeks after application
Summary of the method: as §1

Scirpus juncoides [7] = test: Test Example 1: herbicidal activity, application before weed generation in submerged conditions (symbol B); settings: application herbicide amount 320 g/ha
Summary of the method: as §4

Cyperus difformis = test: Test Example 3: herbicidal effect by foliage application, Wagner pot (symbol E); settings: application herbicide amount 320 g/ha
Summary of the method: as §5

Digitaria ciliaris = test: Test Example 5: herbicidal effect by foliage application, plastic box (symbol F); settings: 320 g/ha, 3 weeks after application
Summary of the method: as §1

[8] = test system: Echinochloa oryzacola Vasing.; test: Test Example 1: herbicidal activity, application before weed generation in submerged conditions (symbol A); settings: application herbicide amount 320 g/ha
Summary of the method: as §4

Amaranthus retroflexus = test: Test Example 5: herbicidal effect by foliage application, plastic box (symbol N); settings: 320 g/ha, 3 weeks after application
Summary of the method: as §1

soybean = test: Test Example 5: effect on crop by foliage application, plastic box (symbol d); settings: 320 g/ha, 3 weeks after application
Summary of the method: as §2

Alopecurus myosuroides = test: Test Example 5: herbicidal effect by foliage application, plastic box (symbol J); settings: 320 g/ha, 3 weeks after application
Summary of the method: as §1

wheat = test: Test Example 5: effect on crop by foliage application, plastic box (symbol e); settings: 320 g/ha, 3 weeks after application
Summary of the method: as §2

Lolium multiflorum Lam. = test: Test Example 5: herbicidal effect by foliage application, plastic box (symbol K); settings: 320 g/ha, 3 weeks after application
Summary of the method: as §1

Monochoria vaginalis [9] = test: Test Example 2: herbicidal activity, application during weed generation in submerged conditions (symbol C); settings: Table 23; application herbicide amount 320 g/ha; grade 0-5 by criteria of Test Example 1
Summary of the method: as §3

corn = test: Test Example 5: effect on crop by foliage application, plastic box (symbol c); settings: 320 g/ha, 3 weeks after application
Summary of the method: as §2

Row | Compound | M: Abutilon theophrasti, herbicidal effect (criteria of Test Example 1) (Abutilon theophrasti) | Effect grade on crop, a: transplanted rice plant (transplanted rice plant) | f: beet, effect on crop (criteria of Test Example 1) (beet) | Herbicidal effect grade, A: Echinochloa oryzacola Vasing. [1] | b: directly sowed rice plant, effect on crop (criteria of Test Example 1) (rice plant) | R: Veronica persica, herbicidal effect (criteria of Test Example 1) (Veronica persica) | Herbicidal effect grade, B: Scirpus juncoides (Scirpus juncoides [2]) | Q: Galium spurium, herbicidal effect (criteria of Test Example 1) (Galium spurium) | H: Echinochloa crus-galli var. crus-galli, herbicidal effect (criteria of Test Example 1) [3] | Herbicidal effect grade, C: Monochoria vaginalis (Monochoria vaginalis [4]) | g: rapeseed, effect on crop (criteria of Test Example 1) (rapeseed) | O: Chenopodium album, herbicidal effect (criteria of Test Example 1) (Chenopodium album) | effect on crop b (directly sowed rice plant), grade 0-5 [5] | L: Apera spica-venti, herbicidal effect (criteria of Test Example 1) (Apera spica-venti) | herbicidal effect on D (Leptochloa chinensis), grade 0-5 (Leptochloa chinensis) | herbicidal effect on H (Echinochloa crus-galli var. crus-galli), grade 0-5 [6] | P: Stellaria media, herbicidal effect (criteria of Test Example 1) (Stellaria media) | I: Avena fatua, herbicidal effect (criteria of Test Example 1) (Avena fatua) | G: Setaria viridis, herbicidal effect (criteria of Test Example 1) (Setaria viridis) | Herbicidal effect grade, B: Scirpus juncoides (Scirpus juncoides [7]) | further results
1 | CCCC=Cc1cc(C)c(C2=C(O)CC(CC(C)=NOC)C2=O)c(C)c1 (stereo not drawn) [6-071] | 0 (Herbicidal ratio of 5% or lower (almost no effect)) | 0 (Herbicidal ratio of 5% or lower (almost no effect)) | 0 (Herbicidal ratio of 5% or lower (almost no effect)) | 2 (Herbicidal ratio of 20% or higher and lower than 40%) | 1 (Herbicidal ratio of 5% or higher and lower than 20%) | 0 (Herbicidal ratio of 5% or lower (almost no effect)) | 0 (Herbicidal ratio of 5% or lower (almost no effect)) | 0 (Herbicidal ratio of 5% or lower (almost no effect)) | 0 (Herbicidal ratio of 5% or lower (almost no effect)) | 0 (Herbicidal ratio of 5% or lower (almost no effect)) | 0 (Herbicidal ratio of 5% or lower (almost no effect)) | 0 (Herbicidal ratio of 5% or lower (almost no effect)) | 1 (Herbicidal ratio of 5% or higher and lower than 20%) | 2 (Herbicidal ratio of 20% or higher and lower than 40%) | 5 (Herbicidal ratio of 90% or more (almost completely withered)) | 4 (Herbicidal ratio of 70% or higher and lower than 90%) | 0 (Herbicidal ratio of 5% or lower (almost no effect)) | 0 (Herbicidal ratio of 5% or lower (almost no effect)) | 0 (Herbicidal ratio of 5% or lower (almost no effect)) | 0 (Herbicidal ratio of 5% or lower (almost no effect)) | herbicidal effect on E, grade 0-5 (Cyperus difformis): 0 (Herbicidal ratio of 5% or lower (almost no effect)); F: Digitaria ciliaris, herbicidal effect (criteria of Test Example 1) (Digitaria ciliaris): 0 (Herbicidal ratio of 5% or lower (almost no effect)); Herbicidal effect grade, A: Echinochloa oryzacola Vasing. [8]: 4 (Herbicidal ratio of 70% or higher and lower than 90%); N: Amaranthus retroflexus, herbicidal effect (criteria of Test Example 1) (Amaranthus retroflexus): 0 (Herbicidal ratio of 5% or lower (almost no effect)); d: soybean, effect on crop (criteria of Test Example 1) (soybean): 0 (Herbicidal ratio of 5% or lower (almost no effect)); J: Alopecurus myosuroides, herbicidal effect (criteria of Test Example 1) (Alopecurus myosuroides): 3 (Herbicidal ratio of 40% or higher and lower than 70%); e: wheat, effect on crop (criteria of Test Example 1) (wheat): 2 (Herbicidal ratio of 20% or higher and lower than 40%); K: Lolium multiflorum Lam., herbicidal effect (criteria of Test Example 1) (Lolium multiflorum Lam.): 4 (Herbicidal ratio of 70% or higher and lower than 90%); Herbicidal effect grade, C: Monochoria vaginalis (Monochoria vaginalis [9]): 0 (Herbicidal ratio of 5% or lower (almost no effect)); c: corn, effect on crop (criteria of Test Example 1) (corn): 0 (Herbicidal ratio of 5% or lower (almost no effect))
2 | CON=C(C)CC1CC(OC(=O)N(C)C)=C(c2c(C)cc(-c3ccc(Cl)cc3)cc2OC)C1=O (stereo not drawn) [6-081] | 0 (Herbicidal ratio of 5% or lower (almost no effect)) | 3 (Herbicidal ratio of 40% or higher and lower than 70%) | 0 (Herbicidal ratio of 5% or lower (almost no effect)) | 1 (Herbicidal ratio of 5% or higher and lower than 20%) | 0 (Herbicidal ratio of 5% or lower (almost no effect)) | 0 (Herbicidal ratio of 5% or lower (almost no effect)) | 0 (Herbicidal ratio of 5% or lower (almost no effect)) | 0 (Herbicidal ratio of 5% or lower (almost no effect)) | 4 (Herbicidal ratio of 70% or higher and lower than 90%) | 1 (Herbicidal ratio of 5% or higher and lower than 20%) | 3 (Herbicidal ratio of 40% or higher and lower than 70%) | 0 (Herbicidal ratio of 5% or lower (almost no effect)) | 0 (Herbicidal ratio of 5% or lower (almost no effect)) | 5 (Herbicidal ratio of 90% or more (almost completely withered)) | 3 (Herbicidal ratio of 40% or higher and lower than 70%) | 1 (Herbicidal ratio of 5% or higher and lower than 20%) | 0 (Herbicidal ratio of 5% or lower (almost no effect)) | 5 (Herbicidal ratio of 90% or more (almost completely withered)) | 0 (Herbicidal ratio of 5% or lower (almost no effect)) | 0 (Herbicidal ratio of 5% or lower (almost no effect)) | herbicidal effect on E, grade 0-5 (Cyperus difformis): 0 (Herbicidal ratio of 5% or lower (almost no effect)); F: Digitaria ciliaris, herbicidal effect (criteria of Test Example 1) (Digitaria ciliaris): 4 (Herbicidal ratio of 70% or higher and lower than 90%); Herbicidal effect grade, A: Echinochloa oryzacola Vasing. [8]: 5 (Herbicidal ratio of 90% or more (almost completely withered)); N: Amaranthus retroflexus, herbicidal effect (criteria of Test Example 1) (Amaranthus retroflexus): 0 (Herbicidal ratio of 5% or lower (almost no effect)); d: soybean, effect on crop (criteria of Test Example 1) (soybean): 0 (Herbicidal ratio of 5% or lower (almost no effect)); J: Alopecurus myosuroides, herbicidal effect (criteria of Test Example 1) (Alopecurus myosuroides): 3 (Herbicidal ratio of 40% or higher and lower than 70%); e: wheat, effect on crop (criteria of Test Example 1) (wheat): 3 (Herbicidal ratio of 40% or higher and lower than 70%); K: Lolium multiflorum Lam., herbicidal effect (criteria of Test Example 1) (Lolium multiflorum Lam.): 4 (Herbicidal ratio of 70% or higher and lower than 90%); Herbicidal effect grade, C: Monochoria vaginalis (Monochoria vaginalis [9]): 0 (Herbicidal ratio of 5% or lower (almost no effect)); c: corn, effect on crop (criteria of Test Example 1) (corn): 5 (Herbicidal ratio of 90% or more (almost completely withered))
